Test results: patent publication US8597875B2, “Method for diagnosing liver toxicity with sex specific biomarkers” (BASF SE, priority 2008, dated 2013)

What was measured:
male rats = experiment: Plasma metabolite profiling (GC-MS/LC-MS) for liver toxicity markers, 28-day gavage study, male rats; format: in vivo, rat; settings: male rats
Method: (§1) A group of each 5 male and female rats was dosed once daily with the indicated compounds (see tables below) at 10 and 100 mg/kg body weight per gavage over 28 days. Additional groups of each 5 male and female animals served as controls. Before starting the treatment period, animals, which were 62-64 days old when supplied, were acclimatized to the housing and environmental conditions for 7 days. All animals of the animal population were kept under the same constant temperature (20-24±3° C.) and the same constant humidity (30-70%). Each animal of the animal population was kept in a separate cage. The animals of the animal population are fed ad libitum. The food to be used was be essentially free of chemical or microbial contaminants. Drinking water was also offered ad libitum. Accordingly, the water was be free of chemical and microbial contaminants as laid down in the European Drinking Water Directive 98/83/EG. The illumination period was 12 hours light followed by 12 hours darkness (12 hours light, from 6:00 to 18:00, and 12 hours darkness, from 18:00 to 6:00).
(§2) In the morning of day 7, 14, and 28, blood was taken from the retroorbital venous plexus from fasted anaesthetized animals. From each animal, 1 ml of blood was collected with EDTA as anticoagulant. The samples were be centrifuged for generation of plasma. All plasma samples were covered with a N2 atmosphere and then stored at −80° C. until analysis.
(§3) For mass spectrometry-based metabolite profiling analyses plasma samples were extracted and a polar and a non-polar fraction was obtained. For GC-MS analysis, the non-polar fraction was treated with methanol under acidic conditions to yield the fatty acid methyl esters. Both fractions were further derivatised with O-methyl-hydroxyamine hydrochloride and pyridine to convert Oxo-groups to O-methyloximes and subsequently with a silylating agent before analysis. In LC-MS analysis, both fractions were reconstituted in appropriate solvent mixtures. HPLC was performed by gradient elution on reversed phase separation columns. For mass spectrometric detection metanomics proprietary technology was applied which allows target and high sensitivity MRM (Multiple Reaction Monitoring) profiling in parallel to a full screen analysis.
(§4) Following comprehensive analytical validation steps, the data for each analyte were normalized against data from pool samples. These samples were run in parallel through the whole process to account for process variability. The significance of treatment group values specific for sex, dose group and metabolite was determined by comparing means of the treated groups to the means of the respective untreated control groups using WELCH-test. Normalized treatment group values and their significance were fed into a database for further statistics and data mining processes.
(§5) The changes of the group of plasma metabolites being indicative for liver toxicity after treatment of the rats are shown in the following tables: […]

female rats = experiment: Plasma metabolite profiling (GC-MS/LC-MS) for liver toxicity markers, 28-day gavage study, female rats; format: in vivo, rat; settings: female rats, fh7 (day 7)
Method: as §1, §2, §3, §4, §5

## C1CCOC1 [Tetrahydrofuran]
Male rats; mh7 (day 7)
  1,2-Dioleoyl-sn-glycero-3-phosphatidyl-L-serine, change of plasma metabolite: 1.70
  4-Hydroxysphingosine, change of plasma metabolite: 2.67
  Arachidonic acid (C20:cis-[5,8,11,14]4), change of plasma metabolite: 1.71
  Behenic acid (C22:0), change of plasma metabolite: 1.35
  Ceramide (d18:1, C24:0), change of plasma metabolite: 1.37
  Ceramide (d18:1, C24:1), change of plasma metabolite: 1.53
  Cholesterol, change of plasma metabolite: 1.81
  Docosahexaenoic acid (C22:cis[4,7,10,13,16,19]6), change of plasma metabolite: 2.52
  Eicosatrienoic acid, change of plasma metabolite: 3.13
  Glycerolphosphate, lipid fraction, change of plasma metabolite: 1.94
  Heptadecanoic acid (C17:0), change of plasma metabolite: 1.52
  Lignoceric acid (C24:0), change of plasma metabolite: 1.62
  Linoleic acid (C18:cis[9,12]2), change of plasma metabolite: 1.52
  Nervonic acid (C24:1), change of plasma metabolite: 1.88
  Palmitic acid (C16:0), change of plasma metabolite: 1.48
  Phosphatidylcholine (C18:0/C22:6), change of plasma metabolite: 1.83
  Phosphatidylcholine (C18:2, C20:4), change of plasma metabolite: 1.52
  Sphingomyelin (d18:1, C16:0), change of plasma metabolite: 1.46
  Tricosanoic acid (C23:0), change of plasma metabolite: 1.51
  alpha-Tocopherol, change of plasma metabolite: 2.61
  myo-Inositol-2-monophosphate, lipid fraction, change of plasma metabolite: 1.70
Male rats; mh14 (day 14)
  1,2-Dioleoyl-sn-glycero-3-phosphatidyl-L-serine, change of plasma metabolite: 1.81
  4-Hydroxysphingosine, change of plasma metabolite: 2.56
  Arachidonic acid (C20:cis-[5,8,11,14]4), change of plasma metabolite: 1.64
  Behenic acid (C22:0), change of plasma metabolite: 1.77
  Ceramide (d18:1, C24:0), change of plasma metabolite: 1.55
  Ceramide (d18:1, C24:1), change of plasma metabolite: 1.48
  Cholesterol, change of plasma metabolite: 1.98
  Docosahexaenoic acid (C22:cis[4,7,10,13,16,19]6), change of plasma metabolite: 2.37
  Eicosatrienoic acid, change of plasma metabolite: 3.76
  Glycerolphosphate, lipid fraction, change of plasma metabolite: 1.93
  Heptadecanoic acid (C17:0), change of plasma metabolite: 1.54
  Lignoceric acid (C24:0), change of plasma metabolite: 1.71
  Linoleic acid (C18:cis[9,12]2), change of plasma metabolite: 1.46
  Nervonic acid (C24:1), change of plasma metabolite: 1.87
  Palmitic acid (C16:0), change of plasma metabolite: 1.49
  Phosphatidylcholine (C18:0/C22:6), change of plasma metabolite: 1.71
  Phosphatidylcholine (C18:2, C20:4), change of plasma metabolite: 1.46
  Sphingomyelin (d18:1, C16:0), change of plasma metabolite: 1.45
  Tricosanoic acid (C23:0), change of plasma metabolite: 1.74
  alpha-Tocopherol, change of plasma metabolite: 2.23
  myo-Inositol-2-monophosphate, lipid fraction, change of plasma metabolite: 2.40
Male rats; mh28 (day 28)
  1,2-Dioleoyl-sn-glycero-3-phosphatidyl-L-serine, change of plasma metabolite: 1.84
  4-Hydroxysphingosine, change of plasma metabolite: 2.64
  Arachidonic acid (C20:cis-[5,8,11,14]4), change of plasma metabolite: 1.76
  Behenic acid (C22:0), change of plasma metabolite: 1.65
  Ceramide (d18:1, C24:0), change of plasma metabolite: 1.40
  Ceramide (d18:1, C24:1), change of plasma metabolite: 1.18
  Cholesterol, change of plasma metabolite: 2.03
  Docosahexaenoic acid (C22:cis[4,7,10,13,16,19]6), change of plasma metabolite: 2.02
  Eicosatrienoic acid, change of plasma metabolite: 3.77
  Glycerolphosphate, lipid fraction, change of plasma metabolite: 2.15
  Heptadecanoic acid (C17:0), change of plasma metabolite: 1.51
  Lignoceric acid (C24:0), change of plasma metabolite: 1.57
  Linoleic acid (C18:cis[9,12]2), change of plasma metabolite: 1.50
  Nervonic acid (C24:1), change of plasma metabolite: 1.97
  Palmitic acid (C16:0), change of plasma metabolite: 1.36
  Phosphatidylcholine (C18:0/C22:6), change of plasma metabolite: 1.32
  Phosphatidylcholine (C18:2, C20:4), change of plasma metabolite: 1.18
  Sphingomyelin (d18:1, C16:0), change of plasma metabolite: 1.39
  Tricosanoic acid (C23:0), change of plasma metabolite: 1.55
  alpha-Tocopherol, change of plasma metabolite: 2.15
  myo-Inositol-2-monophosphate, lipid fraction, change of plasma metabolite: 2.70
Female rats
  1,2-Dioleoyl-sn-glycero-3-phosphatidyl-L-serine, change of plasma metabolite: 1.49
  4-Hydroxysphinganine, change of plasma metabolite: 1.98
  Arachidonic acid (C20:cis-[5,8,11,14]4), change of plasma metabolite: 1.85
  Behenic acid (C22:0), change of plasma metabolite: 1.52
  Ceramide (d18:1, C24:0), change of plasma metabolite: 1.85
  Cholesterol, change of plasma metabolite: 2.18
  Docosahexaenoic acid (C22:cis[4,7,10,13,16,19]6), change of plasma metabolite: 3.22
  Glycerol, lipid fraction, change of plasma metabolite: 1.89
  Glycerolphosphate, lipid fraction, change of plasma metabolite: 1.77
  Heptadecanoic acid (C17:0), change of plasma metabolite: 1.72
  ID28x493, change of plasma metabolite: 2.44
  Lignoceric acid (C24:0), change of plasma metabolite: 1.59
  Linoleic acid (C18:cis[9,12]2), change of plasma metabolite: 2.43
  Nervonic acid (C24:1), change of plasma metabolite: 1.54
  Palmitic acid (C16:0), change of plasma metabolite: 1.97
  Phosphate, lipid (Phospholipids), change of plasma metabolite: 1.37
  Stearic acid (C18:0), change of plasma metabolite: 1.60
  TAG No 1, change of plasma metabolite: 1.66
  Threonic acid, change of plasma metabolite: 1.92
  Tricosanoic acid (C23:0), change of plasma metabolite: 1.80
